Results published in patent US20150196533A1, “METHOD FOR CONCURRENT TREATMENT OF PAIN AND DEPRESSION” (The General Hospital Corporation, priority 2012, published 2015).
Entries after “also recorded” stand apart in the source; their conditions may differ.

Experiments:
Assay type in all cases: in vivo, rat
[1] = test system: Wistar rats with CFA-induced arthritis; test: Nociceptive tests (von Frey, Hargreaves) in rats with CFA-induced hindpaw monoarthritis; conditions: for nociceptive behavior (mechanical allodynia, ipsilateral hindpaw; FIG. 5A): intraperitoneal, 10 mg/day, twice daily for 14 consecutive days after CFA
Description: Hindpaw monoarthritis was induced by the injection of CFA (50 μl) into a unilateral tibio-tarsal joint cavity under brief isoflurane anesthesis (Butler, S. H., et al, and Weil-Fugazza, J. 1992. A limited arthritic model for chronic pain studies in the rat. Pain 48:73-81). Animals in sham groups received the injection of 50 μl Incomplete Freund's Adjuvant.
(§1) Under brief isoflurane anesthesia, a guide cannula (26 gauge, Plasticsone) was implanted just above the hippocampus (AP: −3.6 mm; left: +2.0 mm from Bregma; depth: −4.0 mm from skin) (Paxinos, G., and Watson, C. 1998. The rat brain in stertaxic coordinates. New York: Academic Press). An injection needle (33 gauge, Plasticsone) was inserted through the guide cannula and drug solution or vehicle (0.5 μl) was slowly injected over 5 min using a Hamilton syringe. Locations of the cannula placement were confirmed at the time of tissue harvest (data not shown).
(§2) Animals were habituated to a test setting (30-min session) for three consecutive days. Thermal withdrawal threshold was assessed using the Hargreaves' apparatus and method (Hargreaves, K., et al., 1988. A new and sensitive method for measuring thermal nociception in cutaneous hyperalgesia. Pain 32:77-88). Mechanical withdrawal threshold was assessed using von Frey filaments (Tal, M., and Bennett, G. J. 1994. Extra-territorial pain in rats with a peripheral mononeuropathy: mechano-hyperalgesia and mechano-allodynia in the territory of an uninjured nerve. Pain 57:375-382).

[2] = test system: Wistar rats with CFA-induced arthritis; test: Depressive behavior (forced swim test) in rats with CFA-induced hindpaw monoarthritis; conditions: for depressive behavior (immobility time in FST; FIG. 6H): 100 mg/kg intraperitoneally once on day 14, same arthritic rats, P>0.05
IDO1 [3] = test: Hippocampal IDO1 expression (Western blot, real-time PCR) in rats with CFA-induced arthritis; conditions: 100 mg/kg intraperitoneally once on day 14, same arthritic rats, P>0.05
Description: Rats were sacrificed under pentobarbital anesthesia.
Total RNA was isolated from hippocampal samples using TRIzol reagent (Invitrogen). Four μg of total RNA was used to synthesize the first strand cDNA using SuperScript III kit (Invitrogen). Four μl of cDNA was put into 20 μl vessel with 1 μl of 20× TaqMan Gene Expression Assay. Taqman Gene Expression Assays (Applied Biosystems) containing primers and a Taqman probe were used to quantify each gene of interest. […] The reaction was performed in duplicate with the following conditions: denaturing at 95° C. for 30 s, annealing at 60° C. for 2 min, extension at 68° C. for 2 min for 40 cycles using a 7300 Real-Time PCR System (Applied Biosystems). The RNA expression of GAPDH was measured as control.

IDO1 [4] = test: Intra-hippocampal microinjection in naive rats: hippocampal IDO1 mRNA (real-time PCR); conditions: intra-hippocampal microinjection alone, naive rats; P>0.05
Description: as §1
Total RNA was isolated from hippocampal samples using TRIzol reagent (Invitrogen). Four μg of total RNA was used to synthesize the first strand cDNA using SuperScript III kit (Invitrogen). Four μl of cDNA was put into 20 μl vessel with 1 μl of 20× TaqMan Gene Expression Assay. Taqman Gene Expression Assays (Applied Biosystems) containing primers and a Taqman probe were used to quantify each gene of interest. The genes examined were IL-6 (Rn01410330 m1, M26744.1) and IDO1 (Rn00576778 m1, AF312699.1) for rats and IL-6 (Mm00446190 m1, X54542.1) and IDO1 (Mm00492586 m1, M69109.1) for mice. […] The RNA expression of GAPDH was measured as control.

naive rats = test: Intra-hippocampal microinjection in naive rats: nociceptive and depressive behavior
Description: as §1, §2
FST was performed according to the original method by Porsolt et al (Porsolt, R. D., Le, P. M., and Jalfre, M. 1977. Depression: a new animal model sensitive to antidepressant treatments. Nature 266:730-732). The total duration of immobility (non-swimming) within a 5-min session was recorded as immobility scores (in seconds) and compared among groups.

IDO1/TPH2 = IDO1/TPH2 expression in the hippocampus of CFA rats (Example 11); conditions: intraperitoneally once per day, day 1 to day 14 (1-MT 10 mg, fluoxetine 5 mg); tissue taken 7 days after discontinuation
Text: Rats were divided into five groups: 1) sham-operated rats treated with a vehicle (Sham), 2) CFA-induced hindpaw pain treated with vehicle (C-V). […] Each treatment was given intraperitoneally once per day from day 1 to day 14. Hippocampal tissue samples were taken after the last behavioral tests at 7 days after discontinuation of the corresponding drug treatment.

IL-6 = test: Plasma IL-6 level (ELISA) in rats with nociceptive and depressive behavior; conditions: systemic treatment; rats with both nociceptive and depressive behavior; data not shown
Description: Under pentobarbital anesthesia, whole blood was collected from the left ventricle of the heart and placed in a serum collection tube (BD Vacutainer). Blood clots were formed after 30-60 min at room temperature and the tube was centrifuged for 10 min at 12,000 rpm. ELISA Quantikine kit (R&D Systems) and IDO ELISA kit (TSZ ELISA) was used according to the manufacturer's instructions. Optical density of samples was read at wavelengths of 450 & 570 nm using a microplate reader (Synergy HT, Bio-TEK®). A standard curve, provided by the manufacturer, was generated for each set of samples assayed and the concentration of each sample was obtained according to the standard curve.

[5] = 100 mg/kg intraperitoneally once on day 14, examined 1 hr after, arthritic rats, P<0.05 vs vehicle

CC(=O)Nc1ccc(O)cc1 [acetaminophen, N-acetyl-para-aminophen]
mechanical allodynia (ipsilateral; FIG. 6F) [1, 5]: significantly reduced; also recorded: attenuated | thermal hyperalgesia (FIG. 6G) [1, 5]: significantly reduced; also recorded: attenuated | depressive behavior (immobility time in FST; FIG. 6H) [2]: did not acutely reverse depressive behavior | depressive behavior (immobility time in FST; FIG. 6H) ([2]; listed as APAP): did not change the immobility time in FST | hippocampal IDO1 mRNA level (FIG. 6I) (IDO1 [3]): nor did it alter the IDO1 mRNA level | hippocampal IDO1 mRNA level (FIG. 6I) (IDO1 [3]; listed as APAP): not reversed

N#C/C(=C/c1ccc(O)c(O)c1)C(=O)NCc1ccccc1 [AG490]
IDO1 mRNA expression (IDO1 [4]): had no effect | IL-6 effects (mechanical allodynia, thermal hyperalgesia, depressive behavior, hippocampal IDO1 mRNA; FIG. 9E-H) (naive rats; 5 μg once daily x 7 d co-administered with IL-6 into the hippocampus of naive rats, each P<0.05): prevented; also recorded: blocked | baseline behavioral response (naive rats; intra-hippocampal microinjection alone, naive rats, P>0.05): had no effect

CNCCC(Oc1ccc(C(F)(F)F)cc1)c1ccccc1 (stereo not shown) [SSRI, fluoxetine]
IDO1/TPH2 ratio in the hippocampus (IDO1/TPH2): did not alter the IDO1/TPH2 ratio

Cn1cc(C[C@H](N)C(=O)O)c2ccccc21 [1-MT, L-1-methyl-tryptophan]
nociceptive behavior (thermal hyperalgesia, ipsilateral hindpaw; FIG. 5C) ([1]; intra-hippocampal microinjection, 5 μg in 0.5 μl, once daily x 7 d, contralateral to arthritic hindpaw, P<0.05): attenuated thermal hyperalgesia | behaviors in sham control rats ([1]; intra-hippocampal microinjection): without changing behaviors in sham control rats | nociceptive behavior (mechanical allodynia, ipsilateral hindpaw; FIG. 5A) ([1]; arthritic rats, P<0.05 vs vehicle): significantly attenuated | nociceptive behavior (mechanical allodynia, ipsilateral hindpaw; FIG. 5A) ([1]; arthritic rats, P<0.05 vs vehicle, listed as L-1-MT): attenuated mechanical allodynia | behaviors in sham control rats ([1]; systemic (intraperitoneal) treatment alone): did not alter behaviors in sham controls rats | IDO up-regulation in the hippocampus (IDO1/TPH2): prevented the IDO up-regulation | depressive behavior (immobility time in forced swimming test; FIG. 5D) ([2]; intra-hippocampal microinjection, 5 μg in 0.5 μl, once daily x 7 d, P<0.05): attenuated; also recorded: reduced the immobility time in forced swimming test | depressive behavior (immobility time in forced swimming test; FIG. 5B) ([2]; intraperitoneal, 10 mg/day, twice daily for 14 consecutive days after CFA, arthritic rats, P<0.05 vs vehicle): significantly attenuated; also recorded: improved the immobility time in forced swimming test | elevation of the plasma IL-6 level (IL-6): did not prevent elevation of the plasma IL-6 level
